According to US20190208782A1, “PROCESSING COMPOSITION FOR C[…] WEEDS” (Arch Chemicals, Inc., priority 2018, published 2019):
In brackets after ≈: the same amount, converted by molar mass.

Legend:
Assay type in all cases: in vivo
[1] = system: Eurasian watermilfoil; test: Efficacy of fluroxypyr herbicide on Eurasian watermilfoil under mesocosm conditions (Example 1); settings: 24 h exposure
From the text: Materials and Methods: Eurasian watermilfoil was obtained from cultures. Two apical tips approximately 15 cm long were planted into each of 108, plastic containers. The containers were filled with Black Kow potting soil and amended with 2 g/L Osmocote fertilizer 19-6-12. Four containers of potted Eurasian watermilfoil were placed into each of 27 mesocosm tanks. Mesocosm tanks were filled to a volume of 276 L (48 cm depth) and plants allowed to grow approximately 2-3 weeks prior to herbicide treatments or until plants were at or near the water surface. Pre-treatment biomass was harvested from an extra mesocosm tank set up with potted Eurasian watermilfoil for this purpose. Biomass was harvested by collecting aboveground biomass of plants in the tank. Plant material were dried at 70 C for at least 48 h and weighed to assess biomass.
After pre-treatment data collection, concentrated liquid herbicides were applied as the formulations and rates outlined in Table 1. An untreated reference was also included for comparison purposes. All herbicide applications were made using a 24 h exposure and replicated 3 times. After the exposure time was reached, each mesocosm tank was drained and refilled with fresh water to remove any herbicide residue remaining in the water column.
Each week, tanks were rated for percent control on a 0-100% scale (0%=no control; 100%=complete plant mortality). Four weeks after treatment (WAT), living plants were harvested, sorted to aboveground biomass, dried, and weighed for biomass determination. Differences between treatments were analyzed using an ANOVA test with means separated using a Fisher's Protected LSD test. Fluroxypyr data were fitted to an exponential decay regression model in order to estimate the EC50 value for fluroxypyr use on Eurasian watermilfoil.

[2] = system: water hyacinth; test: Fluroxypyr ester and four potassium salt formulations as foliar application on water hyacinth (Example 5)
Description: Materials and Methods: Water hyacinth was obtained from field locations in Mississippi and cultured in a 300 gallon tank outdoors. Water in the culture tank was amended with 30 mg/L Miracle-Gro fertilizer (14-8-16) every week to maintain plant growth. Once a sufficient density of water hyacinth had been achieved in the culture tank, rosettes of similar size were harvested and divided so that six to seven rosettes were placed into each of 33, 100 gallon treatment tanks. The treatment tanks were filled to a depth of 45 cm with water. Water was amended with 30 mg/L of Miracle-Gro fertilizer to maintain plant growth. Plants were allowed to grow until the water surface in each tank had been covered by water hyacinth.
After the growth period plants were treated as a foliar spray based on the formulations and rates in Table 7. The treatments contained the fluroxypyr herbicide in an amount of 15% by weight. Each surfactant was added in an amount of 10% by weight. The remainder of the formulation was distilled water. Treatments were applied using water as a carrier in a fine foliar spray at a total spray volume of 100 gal/acre using a CO2 pressurized backpack sprayer and single nozzle boom. AB Brand Adjuvant was included in the herbicide solution at a rate of 0.25% v:v.
After treatment, each tank was rated for percent control from 0 to 100% control every week for four weeks. At four weeks after treatment (WAT) a 0.1 m^2 PVC quadrat was used to harvest 1 biomass sample from each tank if living biomass was present. Biomass samples were placed into labeled paper bags, dried in a forced air oven at 50 C for five days, and then weighed to determine dry weight biomass (g/DW/m^2). Differences between treatments were analyzed using ANOVA and means separated using a Fisher's Protected LSD test. All analyses were conducted a p≤0.05 significance level.

[3] = system: water hyacinth; test: Foliar application of fluroxypyr herbicide on water hyacinth (Example 2); settings: for Water hyacinth biomass reduction: 6 WAT
Description: Materials and Methods: Water hyacinth was obtained from field locations and cultured outdoors in a 300 gallon tank. Water in the culture tank was amended with 30 mg/L Miracle-Gro® fertilizer (14-8-16) every week to maintain plant growth. Aquashade® was added to the tank in sufficient concentration to darken the water in order to reduce algae growth
Once a sufficient density of water hyacinth had been achieved in the culture tank (plants had covered the water surface), 54-63 rosettes of similar size were harvested and divided so that six to seven rosettes (depending upon size) were placed into each of 9, 100 gallon treatment tanks. The treatment tanks were filled to a depth of 45 cm with water. Water in each treatment tank was amended and maintained in a similar fashion as the culture tank. Plants were allowed to grow approximately 2 weeks or until the water surface in each tank had been covered. Pre-treatment biomass (1 per tank) was harvested using a 0.1 m^2 PVC quadrat. The quadrat was pushed down over the plant mat in each tank and all biomass was harvested within the PVC frame. Biomass from each tank was rinsed, placed in a paper bag, and dried at 50 C to assess biomass.
After the growth period and pre-treatment harvest, plants were treated as a foliar spray using the product and rates outlined in Table 3. Treatments were applied using water as a carrier in a fine foliar spray and a total spray volume of 100 gal/acre. AB Brand Adjuvant (commercially available from Lonza, Inc.) was included in the herbicide solution at a rate of 0.25% v:v.
After treatment, each tank was rated on a scale from 0 (no control) to 100% (complete mortality) control every week for six weeks. At six weeks after treatment the 0.1 m^2 PVC quadrat was used to harvest 1 biomass sample from each tank if living biomass was present. Samples were rinsed, placed into labeled paper bags, and dried at 50 C to determine dry weight biomass. Differences between treatments were analyzed using ANOVA at a p≤0.05 significance level, and if a difference in treatments was detected means were then separated using a Fisher's Protected LSD test.

## CCCCCCC(C)OC(=O)COc1nc(F)c(Cl)c(N)c1Cl (stereo not shown) [Fluroxypyr ester, [(4-amino-3,5-dichloro-6-fluoro-2-pyridinyl)oxy]acetic acid, 1-methylheptyl ester]
[1]; 50 ug/L, 1 WAT
  Visual control ratings of Eurasian watermilfoil: 30%
[1]; 50 ug/L, 2 WAT
  Visual control ratings of Eurasian watermilfoil: 60%
[1]; 50 ug/L, 3 WAT
  Visual control ratings of Eurasian watermilfoil: 50%
[1]; 50 ug/L, 4 WAT
  Visual control ratings of Eurasian watermilfoil: 45%
  biomass reduction of Eurasian watermilfoil: 76%
[1]; 100 ug/L, 1 WAT
  Visual control ratings of Eurasian watermilfoil: 60%
[1]; 100 ug/L, 2 WAT
  Visual control ratings of Eurasian watermilfoil: 90%
[1]; 100 ug/L, 3 WAT
  Visual control ratings of Eurasian watermilfoil: 90%
[1]; 100 ug/L, 4 WAT
  Visual control ratings of Eurasian watermilfoil: 95%
  biomass reduction of Eurasian watermilfoil: 99%
[1]; 200 ug/L, 1 WAT
  Visual control ratings of Eurasian watermilfoil: 60%
[1]; 200 ug/L, 2 WAT
  Visual control ratings of Eurasian watermilfoil: 100%
[1]; 200 ug/L, 3 WAT
  Visual control ratings of Eurasian watermilfoil: 100%
[1]; 200 ug/L, 4 WAT
  Visual control ratings of Eurasian watermilfoil: 100%
[1]; 400 ug/L, 1 WAT
  Visual control ratings of Eurasian watermilfoil: 70%
[1]; 400 ug/L, 2 WAT
  Visual control ratings of Eurasian watermilfoil: 100%
[1]; 400 ug/L, 3 WAT
  Visual control ratings of Eurasian watermilfoil: 100%
[1]; 400 ug/L, 4 WAT
  Visual control ratings of Eurasian watermilfoil: 100%
[1]; 800 ug/L, 1 WAT
  Visual control ratings of Eurasian watermilfoil: 70%
[1]; 800 ug/L, 2 WAT
  Visual control ratings of Eurasian watermilfoil: 100%
[1]; 800 ug/L, 3 WAT
  Visual control ratings of Eurasian watermilfoil: 100%
[1]; 800 ug/L, 4 WAT
  Visual control ratings of Eurasian watermilfoil: 100%
[1]; 1600 ug/L, 1 WAT
  Visual control ratings of Eurasian watermilfoil: 80%
[1]; 1600 ug/L, 2 WAT
  Visual control ratings of Eurasian watermilfoil: 100%
[1]; 1600 ug/L, 3 WAT
  Visual control ratings of Eurasian watermilfoil: 100%
[1]; 1600 ug/L, 4 WAT
  Visual control ratings of Eurasian watermilfoil: 100%
[1]; 3200 ug/L, 1 WAT
  Visual control ratings of Eurasian watermilfoil: 80%
[1]; 3200 ug/L, 2 WAT
  Visual control ratings of Eurasian watermilfoil: 100%
[1]; 3200 ug/L, 3 WAT
  Visual control ratings of Eurasian watermilfoil: 100%
[1]; 3200 ug/L, 4 WAT
  Visual control ratings of Eurasian watermilfoil: 100%
[1]; 4 WAT, mesocosm, read-out: EC50 for Eurasian watermilfoil (biomass, exponential decay regression model)
  EC50: 8.8 ng/mL (≈ 0.024 µM)
[2]; 4 WAT, Ester 8 oz/acre, potassium salt formulations 10 oz/acre, FIG. 6
  efficacy on water hyacinth biomass relative to the other fluroxypyr treatments: not as efficacious as the other fluroxypyr treatments
[2]; 8 oz/acre foliar, 1 WAT
  Mean percent control ratings of water hyacinth: 20%
[2]; 8 oz/acre foliar, 2 WAT
  Mean percent control ratings of water hyacinth: 25%
[2]; 8 oz/acre foliar, 3 WAT
  Mean percent control ratings of water hyacinth: 55%
[2]; 8 oz/acre foliar, 4 WAT
  Mean percent control ratings of water hyacinth: 75%
[2]; 16 oz/acre foliar, 1 WAT
  Mean percent control ratings of water hyacinth: 20%
[2]; 16 oz/acre foliar, 2 WAT
  Mean percent control ratings of water hyacinth: 45%
[2]; 16 oz/acre foliar, 3 WAT
  Mean percent control ratings of water hyacinth: 85%
[2]; 16 oz/acre foliar, 4 WAT
  Mean percent control ratings of water hyacinth: 95%
[3]; 8 oz/acre foliar spray, 1 week after treatment
  Mean percent control ratings of water hyacinth: 15%
[3]; 8 oz/acre foliar spray, 2 weeks after treatment
  Mean percent control ratings of water hyacinth: 40%
[3]; 8 oz/acre foliar spray, 3 weeks after treatment
  Mean percent control ratings of water hyacinth: 45%
[3]; 8 oz/acre foliar spray, 4 weeks after treatment
  Mean percent control ratings of water hyacinth: 65%
[3]; 8 oz/acre foliar spray, 5 weeks after treatment
  Mean percent control ratings of water hyacinth: 85%
[3]; 8 oz/acre foliar spray
  Water hyacinth biomass reduction: 90%
[3]; 8 oz/acre foliar spray, 6 weeks after treatment
  Mean percent control ratings of water hyacinth: 85%
[3]; 16 oz/acre foliar spray
  time of plant death: approximately 4 WAT
  Water hyacinth biomass reduction: 99%
[3]; 16 oz/acre foliar spray, 1 week after treatment
  Mean percent control ratings of water hyacinth: 35%
[3]; 16 oz/acre foliar spray, 2 weeks after treatment
  Mean percent control ratings of water hyacinth: 45%
[3]; 16 oz/acre foliar spray, 3 weeks after treatment
  Mean percent control ratings of water hyacinth: 65%
[3]; 16 oz/acre foliar spray, 4 weeks after treatment
  Mean percent control ratings of water hyacinth: 85%
[3]; 16 oz/acre foliar spray, 5 weeks after treatment
  Mean percent control ratings of water hyacinth: 95%
[3]; 16 oz/acre foliar spray, 6 weeks after treatment
  Mean percent control ratings of water hyacinth: 95%
